The values that follow are results of earlier work, collected in US11786452B2, “Method for dyeing keratinous material” (Henkel AG & Co. KGaA, priority 2019, dated 2023).

For this data set the following is noted: 25° C.
As for `CCN(Cc1cccc(S(=O)(=O)[O-])c1)c1ccc(C(=C2C=CC(=[N+](CC)Cc3cccc(S(=O)(=O)[O-])c3)C=C2)c2ccccc2S(=O)(=O)[O-])cc1.[Na+].[Na+]` [Acid Blue 9], the solubility in water entry is “more than 20 % by weight”.

Turning to `O=S(=O)([O-])c1ccc(N=Nc2c(O)ccc3ccccc23)cc1.[Na+]` [Acid Orange 7, sodium salt of 4-[(2-hydroxy-1-naphthyl)azo]benzene sulphonate], the solubility in water result is “more than 7 g/L”.

In the case of `Nc1cc(S(=O)(=O)[O-])cc2cc(S(=O)(=O)[O-])c(N=Nc3ccccc3)c(O)c12.[Na+].[Na+]` [Acid Red 33, diantrium salt of 5-amino-4-hydroxy-3-(phenylazo)-naphthalene-2,7-disulphonate], the solubility in water was 2500 µg/mL.

Regarding `O=C([O-])c1c(Cl)c(Cl)c(Cl)c(Cl)c1-c1c2c(Br)cc(=O)c(Br)c-2oc2c(Br)c(O)cc(Br)c12.O=C([O-])c1c(Cl)c(Cl)c(Cl)c(Cl)c1-c1c2c(Br)cc(=O)c(Br)c-2oc2c(Br)c(O)cc(Br)c12.[Na+].[Na+]` [Acid Red 92, disodium salt of 3,4,5,6-tetrachloro-2-(1,4,5,8-tetrabromo-6-hydroxy-3-oxoxanthen-9-yl)benzoic acid], the solubility in water entry is “greater than 10 g/L”.

On to `O=C([O-])C1=NN(c2ccc(S(=O)(=O)[O-])cc2)C(=O)C1N=Nc1ccc(S(=O)(=O)[O-])cc1.[Na+].[Na+].[Na+]` (centres unmarked) [Acid Yellow 23, trisodium salt of 4,5-dihydro-5-oxo-1-(4-sulfophenyl)-4-((4-sulfophenyl)azo)-1H-pyrazole-3-carboxylic acid], for which the “solubility in water” value was “highly soluble”.
